According to article PMC467089, “Click estradiol dimers with novel aromatic bridging units: synthesis and anticancer evaluation” (Journal of Enzyme Inhibition and Medicinal Chemistry, 2024):
Read-outs that look alike come from different tables or passages of the source.

Experiments:
[1] = MTS cytotoxicity assay, BJ; type: cell-based; settings: human
Method: (§1) The p53 deficient variant, HCT116p53−/−, was purchased from Horizon Discovery (Cambridge, UK). The daunorubicin-resistant CCRF-CEM cell line CEM-DNR bulk and paclitaxel-resistant K562-TAX sublines were developed in-house by exposing parental cell lines to escalating concentrations of daunorubicin and paclitaxel, respectively. Cells were maintained in the recommended culture medium (Sigma-Aldrich, St. Louis, MO) supplemented with 10% foetal calf serum, 100 U/mL penicillin, and 100 μg/mL streptomycin. The HUVEC line was obtained from PromoCell (Heidelberg, Germany). The cells were cultured in endothelial cell growth medium with SupplementMix for endothelial cells (PromoCell, Heidelberg, Germany). The incubation conditions were a humidified atmosphere of 95% air and 5% CO2 at 37 °C[10]. Cells were seeded in 384-well plates and after overnight incubation treated with compounds. All tested compounds were dissolved in 100% DMSO, and fourfold serial dilutions were performed using an Echo550 liquid handler (Labcyte, San Jose, CA). The experiments were performed in technical duplicates and three biological replicates. Cells were incubated with compounds for 72 h and thereafter 5 μL of MTS reagent was added to each well.

[2] = tested on: U2OS (osteosarcoma); test: MTS cytotoxicity assay, U2OS; type: cell-based, human; settings: Homo sapiens, U2OS, read-out: IC50 cytotoxic activity U2OS
Method: as §1

[3] = tested on: CCRF-CEM lymphoblasts; test: BrDU incorporation analysis (DNA synthesis); type: cell-based, human
Method: (§2) To further characterise the mode of action of studied compounds, we analysed the cell cycle profile of CCRF-CEM cells treated with compounds for 24 h. […] The compounds ED1–ED9 and ED12 induced arrest in G2/M phase of the cell cycle (Figure 2(A)). To differentiate between G2 block and mitotic arrest, we used phospho-histone H3 (Ser10) mitotic marker (Figure 2(B)). […] Generally, dimers induced a dose-dependent increase of sub G1 cell population with fragmented DNA except for ED2 and ED4 (Figure 2(C)). […] To assess the proliferation of treated cells, they were subjected to 5-bromo-2-deoxyuridine (BrDU) labelling. […] Analogously, changes in 5-bromouridine (BrU) incorporation were examined to monitor overall RNA synthesis.
Thirty minutes before harvesting, cells were pulse-labelled with 10 μM BrDU. After overnight fixation in ice-cold 70% ethanol, cells were resuspended in 2 M HCl for 30 min at room temperature (RT), then washed with 0.1 M Na2B4O7 and blocked with PBS containing 0.5% Tween-20 and 1% BSA. BrDU incorporation was analysed using anti-BrdU antibody clone MoBu-1 (Exbio, Vestec, Czech Republic) and a secondary anti-mouse-FITC antibody (Sigma-Aldrich, St. Louis, MO). Cells were washed with PBS and stained with 0.1 mg/mL propidium iodide and 0.5 mg/mL RNase A for 1 h at RT and analysed by flow cytometry using a 488 nm single beam laser (FACSCalibur, Becton Dickinson, Franklin Lakes, NJ). The percentage of cells with incorporated BrDU was analysed using CellQuest software.

[4] = MTS cytotoxicity assay, HUVEC; type: cell-based; settings: human
Method: as §1

[5] = tested on: CCRF-CEM (childhood T-cell acute lymphoblastic leukaemia); test: MTS cytotoxicity assay, CCRF-CEM; type: cell-based; settings: Homo sapiens, read-out: IC50 cytotoxic activity CCRF-CEM
Method: as §1

[6] = tested on: K562-TAX (paclitaxel-resistant variant of K562); test: MTS cytotoxicity assay, K562-TAX; type: cell-based, human; settings: for IC50: Homo sapiens, K562-Tax, read-out: IC50 cytotoxic activity K562-TAX
Method: as §1

[7] = tested on: CCRF-CEM lymphoblasts; test: Phospho-histone H3 (Ser10) mitotic marker, flow cytometry; type: cell-based, human
Method: as §2
(§3) Treated CCRF-CEM cells were harvested, washed with ice-cold phosphate-buffered saline (PBS), fixed in cold 70% ethanol and stored at −20 °C. Prior to analysis, fixed cells were permeabilised with 0.25% Triton X-100 in PBS for 15 min, blocked in 1% bovine serum, and incubated with anti-phospho-Histone H3 (Ser^10) antibody (Merck Millipore, Burlington, MA). Subsequently, the cells were treated with 50 μg/mL RNAse, stained with propidium iodide and analysed by FACSCalibur (Becton Dickinson, Franklin Lakes, NJ) flow cytometer at 488 nm. Cell cycle distribution (G1, S, and G2/M) was analysed using ModFitLT software (Verity, Topsham, ME), and reflects only viable population prior to the fixing procedure. Particles with lower propidium iodide content than G1 phase cells were classified as non-viable cells with fragmented DNA. Flow cytometry data visualisation was performed using OriginPro 2018b (b9.5.5.409) software (OriginLab Corporation, Northampton, MA)[10].

[8] = molecular target: T1, porcine brain tubulin (Sus scrofa, UniProt P02550+P02554); test: Tubulin polymerisation assay; type: biochemical; settings: 10 μmol/L, Vmax relative to DMSO
T1 construct: purchased Cytoskeleton, Denver, CO; host or cells: porcine brain (tissue-purified)
Method: Tubulin polymerisation assay kit (Cytoskeleton, Denver, CO) was used according to the manufacturer’s instructions. Polymerisation of porcine brain tubulin (>99% purity) was measured using an EnVision Multilabel Plate Reader (PerkinElmer, Waltham, MA) at 37 °C, in the presence of either 10 μmol/L test compounds or DMSO. Maximum polymerisation velocity (Vmax) was calculated from the polymerisation curves. Data visualisation was performed in OriginPro 2018b (b9.5.5.409) software (OriginLab Corporation, Northampton, MA)[10].

[9] = tested on: HCT116p53−/− (p53 gene null variant of HCT116); test: MTS cytotoxicity assay, HCT116p53−/−; type: cell-based; settings: Homo sapiens, read-out: IC50 cytotoxic activity HCT116p53-
Method: as §1

[10] = tested on: HCT116 (colorectal adenocarcinoma); test: MTS cytotoxicity assay, HCT116; type: cell-based; settings: Homo sapiens, read-out: IC50 cytotoxic activity HCT116
Method: as §1

[11] = tested on: CCRF-CEM lymphoblasts; test: BrU incorporation analysis (RNA synthesis); type: cell-based, human
Method: as §2
Prior to the trypsinisation, cells were treated with 1 mM BrU for 30 min. Subsequently, the cells were fixed in 1% paraformaldehyde with 0.05% of NP-40 for 15 min at RT and stored overnight at 4 °C. Fixed cells were washed with 1% glycine in PBS and stained with primary anti-BrdU antibody clone MoBu-1 crossreacting with BrU (Exbio, Vestec, Czech Republic) for 30 min at RT, washed with PBS and labelled with secondary anti-mouse-FITC antibody (Sigma-Aldrich, St. Louis, MO). Following 1-h incubation in 1% paraformaldehyde containing 0.05% NP-40, cells were stained with propidium iodide (0.1 mg/mL) and treated with RNase A (0.5 mg/mL) for 1 h at RT. The percentage of BrU positive cells was quantified using CellQuest software.

[12] = tested on: A549 (lung adenocarcinoma); test: MTS cytotoxicity assay, A549; type: cell-based, human; settings: Homo sapiens, read-out: IC50 cytotoxic activity A549
Method: as §1

[13] = tested on: CEM-DNR (daunorubicin resistant variant of CCRF-CEM); test: MTS cytotoxicity assay, CEM-DNR; type: cell-based, human; settings: Homo sapiens, CEM-DNR, read-out: IC50 cytotoxic activity CEM-DNR
Method: as §1

[14] = tested on: K562 (chronic myelogenous leukaemia); test: MTS cytotoxicity assay, K562; type: cell-based; settings: Homo sapiens, read-out: IC50 cytotoxic activity K562
Method: as §1

[15] = tested on: CCRF-CEM lymphoblasts; test: Cell cycle analysis by flow cytometry (propidium iodide); type: cell-based, human
Method: as §2, §3

[16] = MTS cytotoxicity assay, MRC-5; type: cell-based; settings: human
Method: as §1

[17] = BJ cells (non-tumour skin fibroblasts), MTS assay, 72-h incubation, mean ± SD of 3 independent experiments, read-out: IC50 cytotoxic activity BJ
[18] = MTS assay, 72-h incubation, mean ± SD of 3 independent experiments
[19] = HCT-116, MTS assay, 72-h incubation, mean ± SD of 3 independent experiments
[20] = A549, MTS assay, 72-h incubation, mean ± SD of 3 independent experiments
[21] = K562, MTS assay, 72-h incubation, mean ± SD of 3 independent experiments
[22] = MRC-5 cells (non-tumour fibroblasts), MTS assay, 72-h incubation, mean ± SD of 3 independent experiments, read-out: IC50 cytotoxic activity MRC-5

T1 sequence (P02550 whole entry): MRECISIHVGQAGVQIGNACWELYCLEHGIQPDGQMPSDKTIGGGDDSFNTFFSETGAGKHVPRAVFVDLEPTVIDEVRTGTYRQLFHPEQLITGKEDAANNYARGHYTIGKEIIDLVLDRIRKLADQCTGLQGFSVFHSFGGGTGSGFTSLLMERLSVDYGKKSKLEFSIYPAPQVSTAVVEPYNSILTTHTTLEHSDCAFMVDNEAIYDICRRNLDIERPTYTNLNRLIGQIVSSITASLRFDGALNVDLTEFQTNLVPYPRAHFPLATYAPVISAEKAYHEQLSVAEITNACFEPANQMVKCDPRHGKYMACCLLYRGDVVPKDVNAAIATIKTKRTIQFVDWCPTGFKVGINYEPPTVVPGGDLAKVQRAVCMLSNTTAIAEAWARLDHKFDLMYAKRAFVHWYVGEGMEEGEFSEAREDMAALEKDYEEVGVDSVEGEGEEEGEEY
T1 sequence (P02554 whole entry): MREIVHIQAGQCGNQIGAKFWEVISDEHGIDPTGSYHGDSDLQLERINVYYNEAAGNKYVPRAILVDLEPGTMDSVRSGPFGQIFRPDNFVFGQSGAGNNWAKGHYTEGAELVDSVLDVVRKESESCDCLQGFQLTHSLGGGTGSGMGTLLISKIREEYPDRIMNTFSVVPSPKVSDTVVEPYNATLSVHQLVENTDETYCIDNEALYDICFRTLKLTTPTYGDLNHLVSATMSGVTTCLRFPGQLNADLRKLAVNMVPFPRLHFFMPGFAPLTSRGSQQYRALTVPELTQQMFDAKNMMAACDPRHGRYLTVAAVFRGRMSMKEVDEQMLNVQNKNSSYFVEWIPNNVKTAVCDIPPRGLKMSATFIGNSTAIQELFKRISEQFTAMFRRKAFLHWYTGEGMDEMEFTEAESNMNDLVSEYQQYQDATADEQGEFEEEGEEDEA

| SMILES | BrDU, % of positive cells ([3]; 1×IC50, 24 h) | BrDU, % of positive cells ([3]; 5×IC50, 24 h) | pH3Ser10, % of positive cells ([7]; 1×IC50, 24 h) | pH3Ser10, % of positive cells ([7]; 5×IC50, 24 h) | inhibitory activity against tubulin polymerisation (in words) [8] | BrU, % of positive cells ([11]; 1×IC50, 24 h) | BrU, % of positive cells ([11]; 5×IC50, 24 h) | <G1 (sub-G1, fragmented DNA), % of positive cells ([15]; 1×IC50, 24 h) | >G2/M (polyploidy), % of positive cells ([15]; 1×IC50, 24 h) | G0/G1, % of positive cells ([15]; 1×IC50, 24 h) | G2/M, % of positive cells ([15]; 1×IC50, 24 h) | S, % of positive cells ([15]; 1×IC50, 24 h) | <G1 (sub-G1, fragmented DNA), % of positive cells ([15]; 5×IC50, 24 h) | >G2/M (polyploidy), % of positive cells ([15]; 5×IC50, 24 h) | G0/G1, % of positive cells ([15]; 5×IC50, 24 h) | G2/M, % of positive cells ([15]; 5×IC50, 24 h) | S, % of positive cells ([15]; 5×IC50, 24 h) | IC50 at 72 h [1, 17] | IC50 [2, 18] | IC50 [6, 18] | also measured |
| --- | --- | --- | --- | --- | --- | --- | --- | --- | --- | --- | --- | --- | --- | --- | --- | --- | --- | --- | --- | --- | --- |
| C[C@]12CC[C@@H]3c4ccc(O)cc4CC[C@H]3[C@@H]1CC[C@@]2(O)c1cn(Cc2cccc(Cn3cc([C@]4(O)CC[C@H]5[C@@H]6CCc7cc(O)ccc7[C@H]6CC[C@@]54C)nn3)c2)nn1 [ED1, (17β,17′β)-17,17′-[Benzene-1,3-diylbis(methanediyl-1H-1,2,3-triazole-1,4-diyl)]bisestra-1,3,5(10)-triene-3,17-diol] | 38.15% | 6.70% | 61.09% | 64.45% | comparable or better inhibitory activity | 48.16% | 31.42% | 55.53% | 10.7% | 0.28% | 74.70% | 25.01% | 64.75% | 17.65% | 0.27% | 75.07% | 24.67% | – | – | – | IC50 at 72 h [1]: > 50 µM; IC50 ([2]; 72 h): 1.95 ± 0.44 µM; IC50 at 72 h [4]: 0.0135 ± 0.002 µM; IC50 ([5]; 72 h): 1.6 ± 0.27 µM; IC50 cytotoxic activity K562-TAX [6]: sensitive; IC50 ([6]; 72 h): 1.58 ± 0.16 µM; IC50 ([9]; HCT-116, 72 h): 1.5 ± 0.32 µM; IC50 ([10]; HCT-116, 72 h): 1.41 ± 0.3 µM; IC50 ([12]; A549, 72 h): 1.68 ± 0.2 µM; IC50 ([13]; 72 h): > 50 µM; IC50 ([14]; K562, 72 h): 1.63 ± 0.12 µM; IC50 at 72 h [16]: > 50 µM |
| Cc1cc(C)c(Cn2cc([C@]3(O)CC[C@H]4[C@@H]5CCc6cc(O)ccc6[C@H]5CC[C@@]43C)nn2)c(C)c1Cn1cc([C@]2(O)CC[C@H]3[C@@H]4CCc5cc(O)ccc5[C@H]4CC[C@@]32C)nn1 [ED10, 17,17′-[(2,4,6-Trimethyl-1,3-phenylene)bis(methylene-1H-1,2,3-triazole-1,4-diyl)]di[estra-1,3,5(10)-triene-3,17β-diol]] | – | – | – | – | inactive | – | – | – | – | – | – | – | – | – | – | – | – | – | – | – | – |
| C[C@]12CC[C@@H]3c4ccc(O)cc4CC[C@H]3[C@@H]1CC[C@@]2(O)c1cn(Cc2c(Cl)c(Cl)c(Cl)c(Cn3cc([C@]4(O)CC[C@H]5[C@@H]6CCc7cc(O)ccc7[C@H]6CC[C@@]54C)nn3)c2Cl)nn1 [ED11, 17,17′-[(2,4,5,6-Tetrachloro-1,3-phenylene)bis(methylene-1H-1,2,3-triazole-1,4-diyl)]di[estra-1,3,5(10)-triene-3,17β-diol]] | – | – | – | – | inactive | – | – | – | – | – | – | – | – | – | – | – | – | – | – | – | – |
| C#C[C@]1(O)CC[C@H]2[C@@H]3CCc4cc(O)ccc4[C@H]3CC[C@@]21C [EE, 17α-ethinylestradiol, reference compound] | – | – | – | – | – | – | – | – | – | – | – | – | – | – | – | – | – | > 50 µM | 22.4 ± 5.65 µM | 15.6 ± 6.25 µM | IC50 [9, 19]: 33.6 ± 11.9 µM; IC50 [10, 19]: 30 ± 6.89 µM; IC50 [12, 20]: 31.5 ± 4.16 µM; IC50 [13, 18]: 23 ± 4.7 µM; IC50 [14, 21]: 8.72 ± 2.17 µM; IC50 at 72 h [16, 22]: > 50 µM |
| COc1cc2c(cc1O)CC[C@@H]1[C@@H]2CC[C@]2(C)[C@@H](O)CC[C@@H]12 [ME, 2-methoxyestradiol, reference compound] | 9.31% | 9.49% | 17.74% | 67.40% | – | 23.60% | 46.10% | 23.97% | 6.2% | 31.50% | 28.85% | 39.65% | 65.32% | 10.4% | 1.19% | 84.03% | 14.77% | > 50 µM | 2.13 ± 0.3 µM | 1.32 ± 0.2 µM | IC50 at 72 h ([4]; HUVEC cells (umbilical vein endothelial cells), MTS assay, 72-h incubation, mean ± SD of 3 independent experiments, read-out: IC50 cytotoxic activity HUVEC): 1.07 ± 0.18 µM; IC50 [5, 18]: 1.61 ± 0.097 µM; IC50 [9, 19]: 1.99 ± 0.41 µM; IC50 [10, 19]: 1.58 ± 0.25 µM; IC50 [12, 20]: 2.26 ± 0.15 µM; IC50 [13, 18]: 1.61 ± 0.2 µM; IC50 [14, 21]: 1.43 ± 0.39 µM; IC50 at 72 h [16, 22]: > 50 µM |
